The experiment concerns the target T1, Amine oxidase [flavin-containing] A (Homo sapiens, UniProt P21397).
T1 sequence (P21397 whole entry): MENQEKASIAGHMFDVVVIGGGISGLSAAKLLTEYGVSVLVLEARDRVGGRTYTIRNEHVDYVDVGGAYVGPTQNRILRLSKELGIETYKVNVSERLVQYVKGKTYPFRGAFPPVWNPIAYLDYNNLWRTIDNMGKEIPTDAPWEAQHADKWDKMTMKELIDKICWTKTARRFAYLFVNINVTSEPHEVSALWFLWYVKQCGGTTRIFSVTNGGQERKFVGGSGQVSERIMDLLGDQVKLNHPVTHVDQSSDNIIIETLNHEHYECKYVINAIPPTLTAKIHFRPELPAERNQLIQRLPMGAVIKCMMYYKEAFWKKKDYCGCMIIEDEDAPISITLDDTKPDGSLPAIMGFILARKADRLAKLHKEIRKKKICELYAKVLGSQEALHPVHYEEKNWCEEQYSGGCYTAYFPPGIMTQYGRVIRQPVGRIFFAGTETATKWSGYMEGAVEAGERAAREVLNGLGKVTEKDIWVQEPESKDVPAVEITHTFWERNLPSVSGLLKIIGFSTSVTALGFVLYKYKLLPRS
The experiment in a line: […].

pKi: −log10 of the molar value.

As a reminder, the pKi is −log10 of the Ki, conventionally taken in molar units. `Cn1cccc1C(=O)[C@H](c1ccccc1)N1CCCC1` [1-(1-Methyl-1H-pyrrol-2-yl)-2-phenyl-2-pyrrolidin-1-yl-ethanone (+)-S]: the pKi was 8.02. Regarding `Cn1cccc1C(=O)[C@@H](c1ccccc1)N1CCCC1` [1-(1-Methyl-1H-pyrrol-2-yl)-2-phenyl-2-pyrrolidin-1-yl-ethanone (-)-R], the pKi is 8.46.
